Source: publication PMC10221074, “Functional Profiling of the A-Family of Venom Peptides from the Wolf Spider Lycosa shansia” (Toxins, 2023)

What was measured:
[1] = system: panel of seven bacterial strains; experiment: Antibacterial growth assay (OD600), statements on the whole panel; assay type: cell-based; details: growth after 48 h
A/Hessen/1/2003 (H3N2) = assay type: cell-based, influenza virus
A/Hamburg/05/2009 (H1N1) = assay type: cell-based, influenza virus
[2] = system: Pseudomonas aeruginosa DSM 50071; experiment: Antibacterial growth assay (OD600); details: OD600, medium = 100, MH II broth; for Bacterial growth relative to medium, P. aeruginosa (50071), replicate 1: replicate column 1; for Bacterial growth relative to medium, P. aeruginosa (50071), replicate 2: replicate column 2; for Bacterial growth relative to medium, P. aeruginosa (50071), replicate 3: replicate column 3
Method: (§1) Cryo-conserved cultures of selected bacterial strains (Table 4) were transferred to Tryptic Soy Agar (TSA) plates (Carl Roth) with a sterile inoculation loop, sealed with Parafilm (BEMIS, Neenah, WI, USA), and incubated for 1–2 days at 37 °C depending on growth. Single colonies were picked and transferred into 2–3 mL of the Mueller–Hinton II (MH II) broth (BD, Heidelberg, Germany). The bacteria were cultivated overnight, subcultured on fresh medium and grown for 3–4 h before testing at 37 °C, with shaking at 180 rpm. We measured the optical density at 600 nm (OD600) of 1 mL of the bacterial suspensions in polystyrene cuvettes (SARSTED, Nümbrecht, Germany) using an Ultrospec 10 spectrophotometer (Biochrome, Cambridge, UK). We then diluted them with the MH II medium to the preferred OD600 (Table 2). The peptides were dissolved in DMSO to generate 10 mmol/L stocks and diluted with the MH II medium to 200 µM before the assay. We used 10 µg/mL (~40 µg/mL for S. epidermidis) gentamicin and colistin (Sigma-Aldrich, Taufkirchen, Germany), DMSO and the medium only as controls. The bacteria were transferred to 96-multiwell plates with a final volume of 100 µL per well (50 µL bacterial suspension, and 50 µL test peptide). The OD600 was measured at 0, 24 and 48 h using a BioTek Eon microplate reader followed by analysis with Gen5 v2.09.

[3] = system: Escherichia coli BL21(DE3); experiment: Antibacterial growth assay (OD600); details: for Bacterial growth relative to medium, E. coli, replicate 1 / Bacterial growth relative to medium, E. coli, replicate 2 / Bacterial growth relative to medium, E. coli, replicate 3: OD600, medium = 100, MH II broth; for Bacterial growth relative to medium, E. coli, replicate 1: replicate column 1; for Bacterial growth relative to medium, E. coli, replicate 2: replicate column 2; for Bacterial growth relative to medium, E. coli, replicate 3: replicate column 3
[4] = system: Listeria monocytogenes DSM 20600; experiment: Antibacterial growth assay (OD600); details: for Bacterial growth relative to medium, L. monocytogenes, replicate 1 / Bacterial growth relative to medium, L. monocytogenes, replicate 2 / Bacterial growth relative to medium, L. monocytogenes, replicate 3: OD600, medium = 100, MH II broth; for Bacterial growth relative to medium, L. monocytogenes, replicate 1: replicate column 1; for Bacterial growth relative to medium, L. monocytogenes, replicate 2: replicate column 2; for Bacterial growth relative to medium, L. monocytogenes, replicate 3: replicate column 3
Method: as §1

[5] = system: Pseudomonas aeruginosa DSM 1117; experiment: Antibacterial growth assay (OD600); details: OD600, medium = 100, MH II broth; for Bacterial growth relative to medium, P. aeruginosa (1117), replicate 1: replicate column 1; for Bacterial growth relative to medium, P. aeruginosa (1117), replicate 2: replicate column 2; for Bacterial growth relative to medium, P. aeruginosa (1117), replicate 3: replicate column 3
[6] = system: Micrococcus luteus DSM 20030; experiment: Antibacterial growth assay (OD600); details: for Bacterial growth relative to medium, M. luteus, replicate 1 / Bacterial growth relative to medium, M. luteus, replicate 2 / Bacterial growth relative to medium, M. luteus, replicate 3: OD600, medium = 100, MH II broth; for Bacterial growth relative to medium, M. luteus, replicate 1: replicate column 1; for Bacterial growth relative to medium, M. luteus, replicate 2: replicate column 2; for Bacterial growth relative to medium, M. luteus, replicate 3: replicate column 3
Method: as §1

[7] = system: B/Malaysia/2506/2004 (B-Mal); assay type: cell-based, influenza virus
[8] = system: Staphylococcus epidermidis DSM 28319; experiment: Antibacterial growth assay (OD600); details: for Bacterial growth relative to medium, S. epidermidis, replicate 1: replicate column 1; for Bacterial growth relative to medium, S. epidermidis, replicate 2: replicate column 2; for Bacterial growth relative to medium, S. epidermidis, replicate 3: replicate column 3
[9] = system: Staphylococcus aureus DSM 2569; experiment: Antibacterial growth assay (OD600); details: for Bacterial growth relative to medium, S. aureus, replicate 1 / Bacterial growth relative to medium, S. aureus, replicate 2 / Bacterial growth relative to medium, S. aureus, replicate 3: OD600, medium = 100, MH II broth; for Bacterial growth relative to medium, S. aureus, replicate 1: replicate column 1; for Bacterial growth relative to medium, S. aureus, replicate 2: replicate column 2; for Bacterial growth relative to medium, S. aureus, replicate 3: replicate column 3
[10] = 37 °C, peptide 200 µM mixed 50 µL + 50 µL with bacteria, Figure 7: 48 h
[11] = OD600, medium = 100, MH II broth, 37 °C, peptide 200 µM mixed 50 µL + 50 µL with bacteria, Figure 7: 48 h
[12] = antibiotic control, table line says 10µg/mL (methods: ~40 µg/mL for S. epidermidis), OD600, medium = 100

SLLGLLDVVKNTVGQ [LS-AMP-A11]
Antibacterial activity over the panel (in words) [1]: inhibited the growth of most of the bacteria except two
Viability of infected cells relative to aprotinin, Replicate 1 (A/Hessen/1/2003 (H3N2)): 0.1919
Viability of infected cells relative to aprotinin, Replicate 2 (A/Hessen/1/2003 (H3N2)): 0.09823
Viability of infected cells relative to aprotinin, Replicate 3 (A/Hessen/1/2003 (H3N2)): 0.08306
Viability of infected cells relative to aprotinin, Replicate 1 (A/Hamburg/05/2009 (H1N1)): 0.05004
Viability of infected cells relative to aprotinin, Replicate 2 (A/Hamburg/05/2009 (H1N1)): 0.04235
Viability of infected cells relative to aprotinin, Replicate 3 (A/Hamburg/05/2009 (H1N1)): 0.04417
Viability of infected cells relative to aprotinin, Replicate 4 (A/Hamburg/05/2009 (H1N1); […], replicate 4 (additional internal control)): 0.03789
Viability of infected cells relative to aprotinin, Replicate 5 (A/Hamburg/05/2009 (H1N1); […], replicate 5 (additional internal control)): 0.01667
Bacterial growth relative to medium, P. aeruginosa (50071), replicate 1 [2, 10]: 97.4528
Bacterial growth relative to medium, P. aeruginosa (50071), replicate 2 [2, 10]: 114.818
Bacterial growth relative to medium, P. aeruginosa (50071), replicate 3 [2, 10]: 88.0117
Antibacterial activity (in words) ([3]; E. coli BL21(DE3), growth after 48 h): able to decrease the growth
Bacterial growth relative to medium, E. coli, replicate 1 [3, 10]: 64.587
Bacterial growth relative to medium, E. coli, replicate 2 [3, 10]: 63.905
Bacterial growth relative to medium, E. coli, replicate 3 [3, 10]: 36.8825
Antibacterial activity (in words) ([4]; L. monocytogenes DSM 20600, growth after 48 h): able to decrease the growth
Bacterial growth relative to medium, L. monocytogenes, replicate 1 [4, 10]: 57.2028
Bacterial growth relative to medium, L. monocytogenes, replicate 2 [4, 10]: 67.6393
Bacterial growth relative to medium, L. monocytogenes, replicate 3 [4, 10]: 84.2183
Bacterial growth relative to medium, P. aeruginosa (1117), replicate 1 [5, 10]: 82.0725
Bacterial growth relative to medium, P. aeruginosa (1117), replicate 2 [5, 10]: 95.9276
Bacterial growth relative to medium, P. aeruginosa (1117), replicate 3 [5, 10]: 84.5049
Antibacterial activity (in words) ([6]; M. luteus DSM 20030, growth after 48 h): able to decrease the growth
Bacterial growth relative to medium, M. luteus, replicate 1 [6, 10]: 56.0386
Bacterial growth relative to medium, M. luteus, replicate 2 [6, 10]: 92.3422
Bacterial growth relative to medium, M. luteus, replicate 3 [6, 10]: 31.1812
Viability of infected cells relative to aprotinin, Replicate 1 [7]: 0.04707
Viability of infected cells relative to aprotinin, Replicate 2 [7]: 0.04802
Viability of infected cells relative to aprotinin, Replicate 3 [7]: 0.0552
Bacterial growth relative to medium, S. epidermidis, replicate 1 [8, 11]: 49.2953
Bacterial growth relative to medium, S. epidermidis, replicate 2 [8, 11]: 44.2655
Bacterial growth relative to medium, S. epidermidis, replicate 3 [8, 11]: 33.4715
Antibacterial activity (in words) ([8]; S. epidermidis DSM 28319, growth after 48 h): able to decrease the growth
Bacterial growth relative to medium, S. aureus, replicate 1 [9, 10]: 50.8023
Bacterial growth relative to medium, S. aureus, replicate 2 [9, 10]: 58.8947
Bacterial growth relative to medium, S. aureus, replicate 3 [9, 10]: 79.7231
Antibacterial activity (in words) ([9]; S. aureus DSM 2569, growth after 48 h): able to decrease the growth

CNC(C)C1CCC(N)C(OC2C(N)CC(N)C(OC3OCC(C)(O)C(NC)C3O)C2O)O1 (centres unmarked) [Genta, gentamicin, reference compound]
Bacterial growth relative to medium, P. aeruginosa (50071), replicate 1 ([2]; antibiotic control 10µg/mL): 10.9397
Bacterial growth relative to medium, P. aeruginosa (50071), replicate 2 ([2]; antibiotic control 10µg/mL): 9.403
Bacterial growth relative to medium, P. aeruginosa (50071), replicate 3 ([2]; antibiotic control 10µg/mL): 6.959
Bacterial growth relative to medium, E. coli, replicate 1 ([3]; antibiotic control 10µg/mL): 15.2669
Bacterial growth relative to medium, E. coli, replicate 2 ([3]; antibiotic control 10µg/mL): 26.3127
Bacterial growth relative to medium, E. coli, replicate 3 ([3]; antibiotic control 10µg/mL): 7.573
Bacterial growth relative to medium, L. monocytogenes, replicate 1 ([4]; antibiotic control 10µg/mL): 41.2443
Bacterial growth relative to medium, L. monocytogenes, replicate 2 ([4]; antibiotic control 10µg/mL): 32.6505
Bacterial growth relative to medium, L. monocytogenes, replicate 3 ([4]; antibiotic control 10µg/mL): 13.0219
Bacterial growth relative to medium, P. aeruginosa (1117), replicate 1 ([5]; antibiotic control 10µg/mL): 7.251
Bacterial growth relative to medium, P. aeruginosa (1117), replicate 2 ([5]; antibiotic control 10µg/mL): 12.1419
Bacterial growth relative to medium, P. aeruginosa (1117), replicate 3 ([5]; antibiotic control 10µg/mL): 0.7836
Bacterial growth relative to medium, M. luteus, replicate 1 ([6]; antibiotic control 10µg/mL): 34.7531
Bacterial growth relative to medium, M. luteus, replicate 2 ([6]; antibiotic control 10µg/mL): 33.0988
Bacterial growth relative to medium, M. luteus, replicate 3 ([6]; antibiotic control 10µg/mL): 25.6914
Bacterial growth relative to medium, S. epidermidis, replicate 1 [8, 12]: 41.1615
Bacterial growth relative to medium, S. epidermidis, replicate 2 [8, 12]: 36.2191
Bacterial growth relative to medium, S. epidermidis, replicate 3 [8, 12]: 58.2561
Bacterial growth relative to medium, S. aureus, replicate 1 ([9]; antibiotic control 10µg/mL): 10.1302
Bacterial growth relative to medium, S. aureus, replicate 2 ([9]; antibiotic control 10µg/mL): 22.1938
Bacterial growth relative to medium, S. aureus, replicate 3 ([9]; antibiotic control 10µg/mL): 8.389
